Test results taken from the NIST ThermoML archive (doi:10.1016/j.tca.2013.12.015).
Numbers after ± are expanded uncertainties.

Assay: mn = molality of the nth substance listed, in mol/kg
Details: 101 kPa, Liquid; for speed of sound: Single path-length method; for mass density: Vibrating tube method

## CCCCn1cc[n+](C)c1.[Br-] [1-butyl-3-methylimidazolium bromide] + O
288.15 K, m1 = 0.1019
  speed of sound: 1479 ± 4.2 m/s
  mass density: 1004.34 ± 0.42 kg/m3
288.15 K, m1 = 0.3048
  speed of sound: 1470.2 ± 4.2 m/s
  mass density: 1000.67 ± 0.41 kg/m3
293.15 K, m1 = 0.1019
  speed of sound: 1494.2 ± 4.2 m/s
  mass density: 1003.53 ± 0.42 kg/m3
293.15 K, m1 = 0.3048
  speed of sound: 1486.1 ± 4.2 m/s
  mass density: 999.754 ± 0.41 kg/m3
298.15 K, m1 = 0.1019
  speed of sound: 1506.8 ± 4.2 m/s
  mass density: 1002.16 ± 0.41 kg/m3
298.15 K, m1 = 0.3048
  speed of sound: 1500 ± 4.2 m/s
  mass density: 998.577 ± 0.41 kg/m3
303.15 K, m1 = 0.1019
  speed of sound: 1518.8 ± 4.2 m/s
  mass density: 1000.83 ± 0.41 kg/m3
303.15 K, m1 = 0.3048
  speed of sound: 1512.1 ± 4.2 m/s
  mass density: 997.164 ± 0.41 kg/m3
308.15 K, m1 = 0.1019
  speed of sound: 1528.1 ± 4.2 m/s
  mass density: 999.035 ± 0.41 kg/m3
308.15 K, m1 = 0.3048
  speed of sound: 1522.2 ± 4.2 m/s
  mass density: 995.54 ± 0.41 kg/m3

## CCOC(=O)CC(C)=O [ethyl 3-oxobutanoate] + O
288.15 K, m1 = 0.076
  speed of sound: 1472.6 ± 4.2 m/s
  mass density: 1000.05 ± 0.41 kg/m3
288.15 K, m1 = 0.1625
  speed of sound: 1479.2 ± 4.2 m/s
  mass density: 1001.1 ± 0.41 kg/m3
288.15 K, m1 = 0.2495
  speed of sound: 1485.5 ± 4.2 m/s
  mass density: 1002.14 ± 0.41 kg/m3
288.15 K, m1 = 0.3767
  speed of sound: 1494.1 ± 4.2 m/s
  mass density: 1003.62 ± 0.41 kg/m3
288.15 K, m1 = 0.4725
  speed of sound: 1500 ± 4.2 m/s
  mass density: 1004.7 ± 0.41 kg/m3
288.15 K, m1 = 0.5324
  speed of sound: 1503.4 ± 4.2 m/s
  mass density: 1005.38 ± 0.42 kg/m3
288.15 K, m1 = 0.6848
  speed of sound: 1511.6 ± 4.2 m/s
  mass density: 1007.03 ± 0.42 kg/m3
288.15 K, m1 = 0.7843
  speed of sound: 1516.3 ± 4.2 m/s
  mass density: 1008.1 ± 0.42 kg/m3
288.15 K, m1 = 0.9019
  speed of sound: 1521.4 ± 4.2 m/s
  mass density: 1009.31 ± 0.42 kg/m3
293.15 K, m1 = 0.076
  speed of sound: 1487.8 ± 4.2 m/s
  mass density: 999.128 ± 0.41 kg/m3
293.15 K, m1 = 0.1625
  speed of sound: 1493.6 ± 4.2 m/s
  mass density: 1000.13 ± 0.41 kg/m3
293.15 K, m1 = 0.2495
  speed of sound: 1499.2 ± 4.2 m/s
  mass density: 1001.1 ± 0.41 kg/m3
293.15 K, m1 = 0.3767
  speed of sound: 1506.7 ± 4.2 m/s
  mass density: 1002.48 ± 0.41 kg/m3
293.15 K, m1 = 0.4725
  speed of sound: 1511.7 ± 4.2 m/s
  mass density: 1003.48 ± 0.41 kg/m3
293.15 K, m1 = 0.5324
  speed of sound: 1514.7 ± 4.2 m/s
  mass density: 1004.1 ± 0.41 kg/m3
293.15 K, m1 = 0.6848
  speed of sound: 1521.7 ± 4.2 m/s
  mass density: 1005.6 ± 0.42 kg/m3
293.15 K, m1 = 0.7843
  speed of sound: 1525.7 ± 4.2 m/s
  mass density: 1006.56 ± 0.42 kg/m3
293.15 K, m1 = 0.9019
  speed of sound: 1529.9 ± 4.2 m/s
  mass density: 1007.65 ± 0.42 kg/m3
298.15 K, m1 = 0.076
  speed of sound: 1501.3 ± 4.2 m/s
  mass density: 997.91 ± 0.41 kg/m3
298.15 K, m1 = 0.1625
  speed of sound: 1506.4 ± 4.2 m/s
  mass density: 998.838 ± 0.41 kg/m3
298.15 K, m1 = 0.2495
  speed of sound: 1511.2 ± 4.2 m/s
  mass density: 999.76 ± 0.41 kg/m3
298.15 K, m1 = 0.3767
  speed of sound: 1517.7 ± 4.2 m/s
  mass density: 1001.05 ± 0.41 kg/m3
298.15 K, m1 = 0.4725
  speed of sound: 1522 ± 4.2 m/s
  mass density: 1002 ± 0.41 kg/m3
298.15 K, m1 = 0.5324
  speed of sound: 1524.5 ± 4.2 m/s
  mass density: 1002.58 ± 0.41 kg/m3
298.15 K, m1 = 0.6848
  speed of sound: 1530.5 ± 4.2 m/s
  mass density: 1004 ± 0.41 kg/m3
298.15 K, m1 = 0.7843
  speed of sound: 1533.7 ± 4.2 m/s
  mass density: 1004.9 ± 0.41 kg/m3
298.15 K, m1 = 0.9019
  speed of sound: 1537.2 ± 4.2 m/s
  mass density: 1005.93 ± 0.42 kg/m3
303.15 K, m1 = 0.076
  speed of sound: 1513 ± 4.2 m/s
  mass density: 996.474 ± 0.41 kg/m3
303.15 K, m1 = 0.1625
  speed of sound: 1517.4 ± 4.2 m/s
  mass density: 997.358 ± 0.41 kg/m3
303.15 K, m1 = 0.2495
  speed of sound: 1521.6 ± 4.2 m/s
  mass density: 998.22 ± 0.41 kg/m3
303.15 K, m1 = 0.3767
  speed of sound: 1527.1 ± 4.2 m/s
  mass density: 999.44 ± 0.41 kg/m3
303.15 K, m1 = 0.4725
  speed of sound: 1530.8 ± 4.2 m/s
  mass density: 1000.32 ± 0.41 kg/m3
303.15 K, m1 = 0.5324
  speed of sound: 1532.9 ± 4.2 m/s
  mass density: 1000.86 ± 0.41 kg/m3
303.15 K, m1 = 0.6848
  speed of sound: 1537.8 ± 4.2 m/s
  mass density: 1002.18 ± 0.41 kg/m3
303.15 K, m1 = 0.7843
  speed of sound: 1540.4 ± 4.2 m/s
  mass density: 1003.01 ± 0.41 kg/m3
303.15 K, m1 = 0.9019
  speed of sound: 1543.1 ± 4.2 m/s
  mass density: 1003.94 ± 0.41 kg/m3
308.15 K, m1 = 0.076
  speed of sound: 1523.1 ± 4.2 m/s
  mass density: 994.809 ± 0.41 kg/m3
308.15 K, m1 = 0.1625
  speed of sound: 1526.9 ± 4.2 m/s
  mass density: 995.64 ± 0.41 kg/m3
308.15 K, m1 = 0.2495
  speed of sound: 1530.4 ± 4.2 m/s
  mass density: 996.445 ± 0.41 kg/m3
308.15 K, m1 = 0.3767
  speed of sound: 1535 ± 4.2 m/s
  mass density: 997.59 ± 0.41 kg/m3
308.15 K, m1 = 0.4725
  speed of sound: 1538.1 ± 4.2 m/s
  mass density: 998.41 ± 0.41 kg/m3
308.15 K, m1 = 0.5324
  speed of sound: 1539.8 ± 4.2 m/s
  mass density: 998.9 ± 0.41 kg/m3
308.15 K, m1 = 0.6848
  speed of sound: 1543.7 ± 4.2 m/s
  mass density: 1000.12 ± 0.41 kg/m3
308.15 K, m1 = 0.7843
  speed of sound: 1545.8 ± 4.2 m/s
  mass density: 1000.9 ± 0.41 kg/m3
308.15 K, m1 = 0.9019
  speed of sound: 1547.8 ± 4.2 m/s
  mass density: 1001.76 ± 0.41 kg/m3
